These molecules were tested against Purified bacterial β-glucuronidases (Purified GUS) (UniProt P05804). Conditions: read-out: Purified GUS Orignial IC50.
Assay type: biochemical

Sequence of Purified bacterial β-glucuronidases (Purified GUS) (P05804 whole entry): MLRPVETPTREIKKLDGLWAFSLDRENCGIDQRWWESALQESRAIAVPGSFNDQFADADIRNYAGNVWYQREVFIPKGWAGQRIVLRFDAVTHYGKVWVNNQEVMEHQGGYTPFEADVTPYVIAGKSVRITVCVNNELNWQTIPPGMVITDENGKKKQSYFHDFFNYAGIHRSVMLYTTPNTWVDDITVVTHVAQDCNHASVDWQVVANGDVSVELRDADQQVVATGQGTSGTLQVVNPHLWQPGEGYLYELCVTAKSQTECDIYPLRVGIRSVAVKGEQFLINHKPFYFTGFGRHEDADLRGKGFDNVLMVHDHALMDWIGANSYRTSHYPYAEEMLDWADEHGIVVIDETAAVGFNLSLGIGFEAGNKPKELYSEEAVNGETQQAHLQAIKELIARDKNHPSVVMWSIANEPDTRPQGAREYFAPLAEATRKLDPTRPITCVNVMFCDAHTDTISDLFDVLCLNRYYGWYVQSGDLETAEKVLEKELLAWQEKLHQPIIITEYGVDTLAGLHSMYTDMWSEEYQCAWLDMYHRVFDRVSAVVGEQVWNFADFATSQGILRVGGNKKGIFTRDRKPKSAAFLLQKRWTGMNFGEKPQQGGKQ

Q: How did the IC50 turn out when `Cc1cc(C)c2[nH]c(=O)c(CN(CCO)C(=O)Cc3ccccc3Br)cc2c1` [Ex. 4, 2-(2-bromophenyl)-N-[(6,8-dimethyl-2-oxo-1H-quinolin-3-yl)methyl]-N-(2-hydroxyethyl)acetamide] was run?
A: 920 nM

Q: How did the IC50 turn out when `Cc1cc(C)c2[nH]c(=O)c(CN(CCO)C(=O)Cc3ccccc3Cl)cc2c1` [Ex. 8, 2-(2-chlorophenyl)-N-[(6,8-dimethyl-2-oxo-1H-quinolin-3-yl)methyl]-N-(2-hydroxyethyl)acetamide] was run?
A: 570 nM

Q: For `COc1ccc(Br)c(CC(=O)N(CCO)Cc2cc3cc(C)cc(C)c3[nH]c2=O)c1` [Ex. 12, 2-(2-bromo-5-methoxy-phenyl)-N-[(6,8-dimethyl-2-oxo-1H-quinolin-3-yl)methyl]-N-(2-hydroxyethyl)acetamide], which IC50 is on record?
A: 580 nM

Source: patent US20220125778A1 (priority 2019, published 2022)
